Holding throughout (type): cell-based
One assay addresses T1, mouse P2X4 receptors (Mus musculus, UniProt Q9JJX6).
T1 construct: host or cells: HEK 293 (recombinant, constitutively expressing)
T1 sequence (Q9JJX6 1-388): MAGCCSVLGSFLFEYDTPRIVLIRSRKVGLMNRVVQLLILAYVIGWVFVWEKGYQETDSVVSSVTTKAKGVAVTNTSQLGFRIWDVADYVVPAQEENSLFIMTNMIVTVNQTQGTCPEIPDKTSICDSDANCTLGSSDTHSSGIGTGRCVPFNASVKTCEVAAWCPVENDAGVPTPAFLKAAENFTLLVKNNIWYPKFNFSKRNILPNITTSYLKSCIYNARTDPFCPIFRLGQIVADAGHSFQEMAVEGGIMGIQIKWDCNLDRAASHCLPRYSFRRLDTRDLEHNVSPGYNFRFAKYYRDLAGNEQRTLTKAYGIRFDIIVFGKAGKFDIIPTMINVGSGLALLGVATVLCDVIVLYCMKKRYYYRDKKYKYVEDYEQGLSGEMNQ
The assay can be described thus: Assay B: mouse P2X4 receptor cell line, Fluo8 fluorescence FLIPR (agonist Bz-ATP at EC50). To be noted: HEK mouse P2X4 cell line, agonist Bz-ATP at EC50, average. Here is the method: The identification of agonists and antagonists of the P2X4 receptor from humans and […] also the quantification of the activity of the compounds of the invention was performed by use of recombinant cell lines. […] The test cell lines constitutively express the mouse or human P2X4 receptors. Stimulation of the receptors with an agonist leads to a conformational change of P2X4 and influx of extracellular calcium ions through the ion channel. The cytoplasmatic calcium transient is detected via the calcium sensitive dye Fluo8 for the mouse P2×4 cell line or in case of the human P2×4 cell line a stably expressed calcium-sensitive photoprotein, mitochondrial photina, which, after reconstitution with the cofactor coelenterazine, emits light in dependence of calcium binding [Bovolenta S, Foti M, Lohmer S, Corazza S., J Biomol Screen. […] The strength of Fluo8 fluorescence signal or photina luminescence signal corresponds to the level of receptor activation. An inhibitor would decrease the signal depending on its potency and concentration.
On the day of the assay medium is exchanged by Fluo8 containing buffer for 30 minutes. In the fluorescence reader (FLIPR) test substances in various concentrations are added for 10 minutes. After baseline measurement the agonist Bz-ATP at EC50 concentration is applied and fluorescence is measured immediately.

Assay [1] has as its target T2, P2X4 (Homo sapiens, UniProt Q99571).
T2 sequence (Q99571 1-388): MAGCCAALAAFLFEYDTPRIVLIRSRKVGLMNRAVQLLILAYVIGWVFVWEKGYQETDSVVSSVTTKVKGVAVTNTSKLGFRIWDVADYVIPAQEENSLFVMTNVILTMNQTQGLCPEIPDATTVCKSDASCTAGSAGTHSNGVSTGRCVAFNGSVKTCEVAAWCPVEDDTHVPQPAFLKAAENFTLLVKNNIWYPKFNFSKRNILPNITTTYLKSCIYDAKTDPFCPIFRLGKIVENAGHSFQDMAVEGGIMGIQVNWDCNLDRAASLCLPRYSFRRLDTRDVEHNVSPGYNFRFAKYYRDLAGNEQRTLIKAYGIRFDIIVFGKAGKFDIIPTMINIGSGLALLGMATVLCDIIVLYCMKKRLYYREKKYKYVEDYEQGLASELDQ
Briefly: Assay B: human P2X4 receptor cell line, mitochondrial photina luminescence (agonist Bz-ATP at EC50). On the set-up: host or cells: HEK 293 (recombinant, constitutively expressing; with mitochondrial photina in Assay B). To be noted: for Emax: read-out: human P2X4 Assay B avg Efficacy. In a few lines:
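Bz-ATP at its EC50 activates human P2X4 stably expressed in a cell line that also carries the calcium-sensitive photoprotein mitochondrial photina (coelenterazine cofactor). Light emitted on calcium influx is measured straight away in a luminometer. Reduced luminescence indicates antagonism.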

Assay [2] addresses T2, P2X4. Briefly: Assay A: human P2X4 receptor cell line, FLIPR calcium assay (Fluo-8, agonist Bz-ATP at EC80). To be noted: for IC50: Bz-ATP at EC80, average values; for Emax: read-out: human P2X4 Assay A avg Efficacy. Also noted: host or cells: HEK 293 (recombinant, constitutively expressing; with mitochondrial photina in Assay B). The method, boiled down:
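Antagonism read as inhibition of the calcium response to EC80 Bz-ATP, by peak-over-basal Fluo-8 fluorescence over 120 s, normalized to DMSO wells. Human P2X4-HEK cells, dye-loaded 30 min in probenecid-containing HBSS/HEPES pH 7.4, received compound 30 min beforehand at room temperature, 0.5% DMSO final. Triplicates fitted for IC50, maximal inhibition and Hill slope.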

The mark [3] stands for this setting: HEK human P2X4 cell line, photina luminescence, agonist Bz-ATP at EC50, average.
[4] abbreviates: HEK human P2X4 cells, Fluo-8 FLIPR.
Where [5] appears, read: percentage of maximal inhibition, HEK human P2X4 cells, Fluo-8 FLIPR.

A value given as a limit tells only on which side of the number the result lay.

From US20180338980A1, “AROMATIC SULFONAMIDE DERIVATIVES” (BAYER PHARMA AKTIENGESELLSCHAFT, priority 2015, published 2018) come the findings set out here.

In the case of `NS(=O)(=O)c1cc(NC(=O)Cc2ccccc2Cl)ccc1Oc1cncc(Cl)c1` [Example 029, 2-(2-Chlorophenyl)-N-{4-[(5-chloropyridin-3-yl)oxy]-3-sulfamoylphenyl}acetamide], the “mouse P2X4 Assay B avg Efficacy” value at mouse P2X4 receptors is given as 50%.
Still for that read-out and setting: the value for `NS(=O)(=O)c1cc(NC(=O)Cc2c(F)cccc2Cl)ccc1Oc1cccc(Cl)c1` [Example 100, 2-(2-Chloro-6-fluorophenyl)-N-[4-(3-chlorophenoxy)-3-sulfamoylphenyl]acetamide] was 43%.
What is called IC50 is the midpoint of a concentration-inhibition curve. As to `NS(=O)(=O)c1cc(NC(=O)Cc2ccccc2)ccc1OCc1ccccc1` [Example 146, N-[4-(Benzyloxy)-3-sulfamoylphenyl]-2-phenylacetamide], on mouse P2X4 receptors, the IC50 is greater than 50000 nM and the “mouse P2X4 Assay B avg Efficacy” value came out at 7%. Moreover, at P2X4 [1] (setting [3]), the IC50 is 314 nM and the Emax was 71%.
For `NS(=O)(=O)c1cc(NC(=O)Cc2ccccn2)ccc1Oc1cccc(Cl)c1` [Example 185, N-[4-(3-Chlorophenoxy)-3-sulfamoylphenyl]-2-(pyridin-2-yl)acetamide] the same measures were greater than 16000 nM, 22%, 567 nM and 77%.
As for `NS(=O)(=O)c1cc(NC(=O)Cc2ccccc2Cl)ccc1Oc1cccc(Cl)c1` [Example 187, N-[4-(3-Chlorophenoxy)-3-sulfamoylphenyl]-2-(2-chlorophenyl)acetamide], the “mouse P2X4 Assay B avg Efficacy” value on mouse P2X4 receptors was 41%.
In the case of `NS(=O)(=O)c1cc(NC(=O)Cc2ccc(F)cc2Cl)ccc1Oc1ccc(Cl)cc1` [Example 231, 2-(2-Chloro-4-fluorophenyl)-N-[4-(4-chlorophenoxy)-3-sulfamoylphenyl]acetamide], the IC50 stood at 529 nM on P2X4 [2] (setting [4]) and 121 nM at P2X4 [1] (setting [3]). The Emax was 62% at P2X4 [2] (setting [5]) and 46% at P2X4 [1] (setting [3]).
For the compound `Cn1cc(Oc2ccc(NC(=O)Cc3ccccc3Cl)cc2S(N)(=O)=O)cn1` [Example 233, 2-(2-Chlorophenyl)-N-{4-[(1-methyl-1H-pyrazol-4-yl)oxy]-3-sulfamoylphenyl}acetamide], the Emax came out at 70% at P2X4 [2] (setting [5]) and 79% on P2X4 [1] (setting [3]).
For `NS(=O)(=O)c1cc(NC(=O)Cc2ccc(C(F)F)cc2)ccc1Oc1ccc(Cl)cc1` [Example 234, N-[4-(4-Chlorophenoxy)-3-sulfamoylphenyl]-2-[4-(difluoromethyl)phenyl]acetamide], the half-maximal inhibitory concentration (IC50) on P2X4 [2] (setting [4]) came out at 562 nM; at P2X4 [1] (setting [3]), 695 nM. In addition, the Emax on P2X4 [2] (setting [5]) worked out at 73%; at P2X4 [1] (setting [3]), 43%.
With `COc1ccc(CC(=O)Nc2ccc(Oc3ccc(Cl)cc3)c(S(N)(=O)=O)c2)c(Cl)c1` [Example 235, 2-(2-Chloro-4-methoxyphenyl)-N-[4-(4-chlorophenoxy)-3-sulfamoylphenyl]acetamide], the IC50 worked out at 473 nM at P2X4 [2] (setting [4]) and 787 nM on P2X4 [1] (setting [3]). Also, the results for the Emax at P2X4 [2] (setting [5]) and on P2X4 [1] (setting [3]) were 79% and 69%, respectively.
For the compound `CC(C(=O)Nc1ccc(Oc2cccc(Cl)c2)c(S(N)(=O)=O)c1)c1c(F)cccc1Cl` (stereo not drawn) [Example 258, 2-(2-Chloro-6-fluorophenyl)-N-[4-(3-chlorophenoxy)-3-sulfamoylphenyl]propanamide], on mouse P2X4 receptors, the IC50 was 260 nM and the “mouse P2X4 Assay B avg Efficacy” value is reported as 52%. In addition, at P2X4 [2] (setting [4]), the IC50 is 779 nM. Moreover, the Emax on P2X4 [2] (setting [5]) was 76%.
As to `CC(C)(O)c1ccc(Oc2ccc(NC(=O)Cc3ccccc3Cl)cc2S(N)(=O)=O)cc1` [Example 264, 2-(2-Chlorophenyl)-N-{4-[4-(2-hydroxypropan-2-yl)phenoxy]-3-sulfamoylphenyl}acetamide], the Emax on P2X4 [2] (setting [5]) was 62%; on P2X4 [1] (setting [3]) it was 80%.
For `CC1(C)CC(Oc2ccc(NC(=O)Cc3ccccc3Cl)cc2S(N)(=O)=O)CC(C)(C)O1` [Example 269, 2-(2-Chlorophenyl)-N-{3-sulfamoyl-4-[(2,2,6,6-tetramethyltetrahydro-2H-pyran-4-yl)oxy]phenyl}acetamide], the IC50 was greater than 25000 nM on P2X4 [2] (setting [4]) and greater than 50000 nM on P2X4 [1] (setting [3]). Also, the figures for the Emax at P2X4 [2] (setting [5]) and on P2X4 [1] (setting [3]) were 37% and 14%, respectively.
Consider `Cc1cc(NC(=O)Cc2ccccc2Cl)cc(S(N)(=O)=O)c1Oc1cccc(Cl)c1` [Example 270, N-[4-(3-Chlorophenoxy)-3-methyl-5-sulfamoylphenyl]-2-(2-chlorophenyl)acetamide], for which, on mouse P2X4 receptors, the IC50 turned out to be 1240 nM and the “mouse P2X4 Assay B avg Efficacy” value came to 44%. Moreover, on P2X4 [2] (setting [4]), the IC50 was found to be 104 nM. Moreover, the Emax at P2X4 [2] (setting [5]) amounted to 94%.
For `Cc1cc(NC(=O)Cc2ccccc2)cc(S(N)(=O)=O)c1Oc1cccc(Cl)c1` [Example 271, N-[4-(3-Chlorophenoxy)-3-methyl-5-sulfamoylphenyl]-2-phenylacetamide], in that order: greater than 16000 nM, 31%, 81 nM and 84%.
For `COC(=O)c1ccccc1Oc1ccc(NC(=O)Cc2ccccc2Cl)cc1S(N)(=O)=O` [Example 272, Methyl 2-(4-{[(2-chlorophenyl)acetyl]amino}-2-sulfamoylphenoxy)benzoate], in that order: greater than 16000 nM, 25%, 19 nM and 73%.
Consider `COC(=O)c1ccc(Oc2ccc(NC(=O)Cc3ccccc3Cl)cc2S(N)(=O)=O)cc1` [Example 273, Methyl 4-(4-{[(2-chlorophenyl)acetyl]amino}-2-sulfamoylphenoxy)benzoate], for which, at mouse P2X4 receptors, the IC50 came to 149 nM and the “mouse P2X4 Assay B avg Efficacy” value came out at 45%. In addition, the IC50 at P2X4 [2] (setting [4]) was determined as 18 nM. Also, the Emax on P2X4 [2] (setting [5]) worked out at 78%.
For the compound `CC(C)(O)c1cccc(Oc2ccc(NC(=O)Cc3ccccc3Cl)cc2S(N)(=O)=O)c1` [Example 274, 2-(2-Chlorophenyl)-N-{4-[3-(2-hydroxypropan-2-yl)phenoxy]-3-sulfamoylphenyl}acetamide], the Emax worked out at 104% on P2X4 [2] (setting [5]) and 64% on P2X4 [1] (setting [3]).
Consider `CC(C)(O)c1ccccc1Oc1ccc(NC(=O)Cc2ccccc2Cl)cc1S(N)(=O)=O` [Example 275, 2-(2-Chlorophenyl)-N-{4-[2-(2-hydroxypropan-2-yl)phenoxy]-3-sulfamoylphenyl}acetamide], for which the “mouse P2X4 Assay B avg Efficacy” value at mouse P2X4 receptors turned out to be 44%.
As to `NS(=O)(=O)c1cc(NC(=O)Cc2c(Cl)ccc3c2CCO3)ccc1Oc1cccc(Cl)c1` [Example 278, 2-(5-Chloro-2,3-dihydro-1-benzofuran-4-yl)-N-[4-(3-chlorophenoxy)-3-sulfamoylphenyl]acetamide], the IC50 on P2X4 [2] (setting [4]) was determined as 139 nM; on P2X4 [1] (setting [3]), 180 nM. For the same compound, the values for the Emax on P2X4 [2] (setting [5]) and at P2X4 [1] (setting [3]) were 82% and 65%, respectively.
For `NS(=O)(=O)c1cc(NC(=O)Cc2ccccc2F)ccc1OCC1CCOCC1` [Example 279, 2-(2-Fluorophenyl)-N-[3-sulfamoyl-4-(tetrahydro-2H-pyran-4-ylmethoxy)phenyl]acetamide], the Emax was 61% on P2X4 [2] and 85% on P2X4 [1].
